Like-named read-outs stand apart in the source and are kept apart here.
Key:
[1] = Brain penetration (brain:plasma ratio of drug levels) after acute and repeated dosing; format: in vivo; details: rodents
[2] = cancer patients, oral; cited from earlier work
[3] = system: acetylation of histones in the brain; experiment: Acetylation of histones in the brain of mice, required free plasma exposure; format: in vivo
[4] = system: progranulin protein in primary fibroblasts from progranulin mutation carriers; experiment: Progranulin protein expression in primary fibroblasts from progranulin mutation carriers (ELISA); format: cell-based, human; details: 0.3 μM, after 8 h
Description: (§1) For analysis of progranulin protein expression, cell pellets were re-suspended in 150 μl of chilled RIPA Lysis Buffer supplemented with a protease-inhibitor cocktail and incubated for 15-20 minutes at 4° C. to allow for cell lysis. Total protein concentrations of each sample were determined by performing a BCA protein assay (Pierce). Quantitative determination of Progranulin protein levels was performed by ELISA (AdipoGen, Incheon, South Korea), using a 1:20 dilution of the cell lysate following the manufacturer protocol. Progranulin levels were expressed relative to protein amount, and compound treatment groups were expressed relative to the vehicle-treated group.
(§2) Primary fibroblasts from patients harboring different mutations in the progranulin gene were isolated and maintained in complete growth medium (cGM), comprised of D-MEM supplemented with 10% heat-inactivated FBS and 1% Penicillin/Streptomycin. The fibroblasts were seeded into 6-well tissue-culture plates at a density of 150,000-190,000 cells per well in cGM. Following overnight incubation, the cells were treated with 0.3 or 3 μM of Compound 1. Analysis of progranulin mRNA expression was performed as described in Example 4. Analysis of progranulin protein was performed as described in Example 4.

[5] = system: progranulin protein in cerebral cortex; experiment: Progranulin protein levels in mouse cerebral cortex (ELISA); format: in vivo, C57BL/6 mice; details: normal mice, 100 mg/kg oral, 8 h after acute dosing
Description: (§3) C57BL/6 mice (n=6/group; Charles River) were treated with either vehicle (1% carboxymethylcellulose-medium viscosity/0.5% Tween 80 (99.5:0.5 v/v)) or with an oral dose of 100 mg/kg of Compound 1 prepared in the same vehicle. Animals were sacrificed at specific time points and the brain extracted. Left and right hemisphere of the cerebral cortex were separated and used for RNA and protein extractions.
Proteins were extracted in 50 mM Tris pH 7.4/150 mM NaCl/0.1% SDS with protease inhibitors using an extraction ratio of 200 mg of brain tissue per ml buffer. Sample was spun for 20 minutes at 16,200 g and supernatant collected. Progranulin levels were measured using a 1:4 dilution of the tissue extract (FIG. 5B) with a mouse ELISA kit from Adipogen (Incheon, South Korea) according to the manufacturer instructions. Progranulin levels were normalized to total protein concentration as measured by the BCA method (Pierce).

[6] = system: progranulin protein in CSF and plasma; experiment: Progranulin levels in rat CSF and plasma (ELISA); format: in vivo, Sprague Dawley rats; details: normal rats, 100 mg/kg intra-peritoneally
Description: Sprague Dawley rats (n=12/group; Charles River) were dosed intra-peritoneally with either vehicle (Solutol HS 15/Ethanol (3:2 v/v)) or with a dose of 100 mg/kg of Compound 1 prepared in the same vehicle. EDTA-Plasma and CSF were collected after 4 and 8 hours of treatment, and progranulin levels were assessed by ELISA (Adipogen, Incheon, South Korea) using a 1:2 dilution for CSF (FIG. 6A) and a 1:25 dilution for plasma (FIG. 6B).

[7] = Maximum Tolerated Dose in humans, oral dosing; format: in vivo; details: healthy volunteers
[8] = system: progranulin mRNA in primary fibroblasts from progranulin mutation carriers; experiment: Progranulin mRNA expression in primary fibroblasts from progranulin mutation carriers (qPCR); format: cell-based, human; details: 3 μM, after 8 h
Description: (§4) For analysis of progranulin mRNA expression, samples were analyzed as described in Example 1, with the exception that probes specific for the human granulin gene (Applied Biosystems, Carlsbad, Calif.) were used.
as §2

[9] = system: progranulin mRNA in lymphoblasts from progranulin mutation carriers; experiment: Progranulin mRNA expression in FTLD patient lymphoblast cell lines (qPCR); format: cell-based, human; details: 3 μM, after 24 h
Description: (§5) Immortalized (Epstein-Barr-Virus) B-lymphocytes isolated from the peripheral blood of patients subject harboring different mutations in the granulin gene were used to measure effects of compounds on progranulin mRNA and protein expression. The cell lines were maintained in complete growth medium (cGM), comprised of RPMI 1640 medium supplemented with 15% heat-inactivated FBS, 4 mM L-Glutamine and 1% Penicillin/Streptomycin. Cells were seeded into 24-well tissue-culture plates at a density of 400,000-500,000 cells per well in cGM. Following an overnight incubation, the cells were treated with 0.3 or 3 μM of Compound 1. Following an 8- or 24-hour exposure to Compound 1, cells were collected, spun, and the resulting cell pellets underwent a single rinse in chilled PBS.
as §4

[10] = system: progranulin protein in lymphoblasts from progranulin mutation carriers; experiment: Progranulin protein expression in FTLD patient lymphoblast cell lines (ELISA); format: cell-based, human; details: 3 μM, after 24 h
Description: as §5
as §1, with “Progranulin levels were expressed relative to protein amount, and compound treatment groups were expressed relative to the vehicle-treated group.” left out

[11] = system: progranulin mRNA in cerebral cortex; experiment: Progranulin mRNA expression in mouse cerebral cortex (qPCR); format: in vivo, C57BL/6 mice; details: normal mice, 100 mg/kg oral, 8 h after acute dosing
Description: as §3
RNA was extracted with Qiazol reagent using the RNeasy lipid-rich tissue kit from Qiagen (Valencia, Calif.) following manufacturer instructions. RNA was then transcribed into cDNA using the high capacity cDNA reverse transcription kit from Applied Biosystems (Carlsbad, Calif.), according to kit instructions. Relative progranulin gene expression was measured by quantitative PCR using mouse-specific probes (Applied Biosystems, Carlsbad, Calif.) for the granulin gene, and for Rp113a as a reference gene. The ΔΔCt method was used for calculations of relative gene expression levels (Pfaffl, Nucleic Acids Res., 2001). This method compares expression of the different genes (reference and gene of interest) in animals treated with vehicle versus the compound of the invention (FIG. 5A).

[12] = system: progranulin mRNA expression in primary cortical neurons; experiment: Progranulin mRNA expression by quantitative PCR in primary cortical neurons; format: cell-based, rat; details: for increase in progranulin mRNA expression: after 8 h of treatment, primary cortical neurons
Description: (§6) Primary cortical (Cx) and hippocampal (Hp) neurons are derived from E17 Sprague-Dawley rats and cultured in 24-well plates (325,000 cells/well for Cx and 250,000 cells/well for Hp). Half of the medium is replaced with fresh medium every four days. On day 10 of culture, neurons are incubated in the presence of different concentrations (0.1-3 μM) of a compound of the invention, e.g., Compound 1, for 2-24 h. At specific time points, conditioned medium is removed and frozen until needed for ELISA assay. Cells are washed with PBS and RNA is extracted with Qiazol reagent using the RNeasy kit from Qiagen (Valencia, Calif.) following manufacturer instructions. RNA is then transcribed into cDNA using the high capacity cDNA reverse transcription kit from Applied Biosystems (Carlsbad, Calif.) according to kit instructions.
Relative progranulin gene expression is measured by quantitative PCR using rat-specific probes (Applied Biosystems, Carlsbad, Calif.) for the granulin gene and for Rp113a as a reference gene. The ΔΔCt method is used for calculations of relative gene expression levels (Pfaffl, Nucleic Acids Res., 2001). This method compares expression of the different genes (reference and gene of interest) in cells treated with vehicle versus the compound of the invention. Moreover, this measurement and analysis of mRNA levels is expected to be predictive of the expression of progranulin protein levels.
Neuronal granulin gene expression was measured at different time points as described in Example 1 (1, 4, 6, 8, 10, 18 and 24 h) following treatment with (Z)-4-(dibenzo[b,f][1,4]oxazepin-11-yl)-N-hydroxybenzamide

[13] = system: progranulin protein in rat primary cortical neurons; experiment: Progranulin protein expression in rat primary cortical neurons (ELISA); format: cell-based; details: 3 μM, after 8 h
Description: as §6
as §1, with “Progranulin levels were expressed relative to protein amount, and compound treatment groups were expressed relative to the vehicle-treated group.” left out

[14] = system: progranulin protein in immortalized lymphoblasts from a normal human subject; experiment: Progranulin protein by western blot in immortalized lymphoblasts from a normal human subject; format: cell-based; details: 24 h
Description: Cellular protein from immortalized (Epstein-Barr-Virus) B-lymphocytes isolated from the peripheral blood of normal human volunteers was isolated as described in Example 4. Cells were treated with Compound 1 for 24 h. For Western Blotting analysis of progranulin protein, 50 μg of total cellular protein were separated on a 4-12% Bis-Tris Poly-Acrylamide gel using MOPS Running Buffer, transferred to a PVDF membrane and probed with a R & D Systems (Minneapolis, Minn.) mouse monoclonal anti-human progranulin antibody, followed by an IRDye secondary antibody (Rockland). Detection was performed using the Li-COR Odyssey imaging system. Progranulin signals (Integrated Intensity after background subtraction) were quantified using Li-COR Odyssey software.

O=C(CCCCCCC(=O)Nc1ccccc1)NO [SAHA]
Kp ([1]; acute dosing experiments, read-out: brain:plasma (b:p) ratio): ~0.1
Maximum Tolerated Dose (MTD) [2]: 400 mg
excess of plasma protein unbound ('free') drug required to produce acetylation of histones in the brain, compared to Compound 1 [3]: ~30 fold

O=C(NO)c1ccc(C2=Nc3ccccc3Oc3ccccc32)cc1 [Compound 1, (Z)-4-(dibenzo[b,f][1,4]oxazepin-11-yl)-N-hydroxybenzamide]
increase in progranulin protein expression [4]: 1.1 fold
increase in progranulin protein levels in brain (cerebral cortex) [5]: about 1.16 fold
increase in CSF progranulin protein ([6]; 4 h after acute dosing): about 1.9 fold
increase in plasma progranulin protein levels ([6]; concomitantly (4 h after acute dosing)): about 1.4 fold
Kp ([1]; acute and repeated dosing, read-out: brain:plasma (b:p) ratio for drug levels): ~5
Maximum Tolerated Dose (MTD), not observed at highest dose used [7]: > 400 mg
increase in progranulin mRNA [8]: 1.3 fold
increase in progranulin mRNA [9]: 2.4 fold
increase in progranulin protein expression [10]: 1.5 fold
increase in progranulin mRNA in brain (cerebral cortex) [11]: 1.45 fold
increase in progranulin mRNA expression ([12]; 0.3 μM): ~2 fold
increase in progranulin mRNA expression ([12]; 3 μM): ~5 fold
increase in progranulin gene expression ([12]; lowest dose (0.1 μM), as soon as 4 h after treatment, sustained for 24 h): ~40%
increase in progranulin protein expression [13]: 1.77 fold
increase in progranulin protein (western blot) ([14]; 0.3 μM): 1.3 fold
increase in progranulin protein (western blot) ([14]; 3 μM): 1.6 fold

— patent publication US20140179678A1, “METHODS OF TARGETED TREATMENT OF FRONTOTEMPORAL LOBAR DEGENERATION” (priority 2011, published 2014)
